# Molecular target: T1, human β3 adrenergic receptor (Homo sapiens, UniProt P13945)
# T1 construct: expressed in transfected cells; host or cells: DXB-11 Chinese hamster ovary (CHO) cell line, stably transfected (phd expression vector)
# Assay: whole cell receptor coupled c-AMP assay, human β3 receptor in CHO cells (EC50, Emax relative to isoproterenol)
# Format: cell-based
# Conditions: % intrinsic activity relative to isoproterenol maximal response; SEM in brackets; c-AMP in transfected CHO cells
# Method in brief: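 Stably transfected DXB-11 CHO cells (20,000/well) were exposed to compound for 20 min at 37 °C in HBSS/HEPES buffer with 1 mM IBMX, pH 7.4. cAMP was measured by SPA. EC50 came from a four-parameter logistic fit, and Emax is the maximal response as a percentage of isoproterenol's.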
# T1 sequence (P13945 whole entry): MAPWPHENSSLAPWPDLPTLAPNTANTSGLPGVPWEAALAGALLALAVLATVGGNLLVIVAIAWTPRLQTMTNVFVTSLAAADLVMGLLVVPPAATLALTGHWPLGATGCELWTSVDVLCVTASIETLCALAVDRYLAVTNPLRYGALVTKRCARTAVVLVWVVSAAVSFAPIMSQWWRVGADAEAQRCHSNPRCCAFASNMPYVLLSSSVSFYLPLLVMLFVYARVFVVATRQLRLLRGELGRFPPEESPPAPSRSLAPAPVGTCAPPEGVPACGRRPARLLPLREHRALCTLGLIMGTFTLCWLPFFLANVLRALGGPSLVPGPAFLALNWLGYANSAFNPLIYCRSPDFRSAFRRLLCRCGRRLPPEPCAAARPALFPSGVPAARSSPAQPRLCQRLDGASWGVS
row,Emax,SMILES
1,74.2%,CC(C)(Cc1ccc(Oc2ncccc2C(N)=O)cc1)NC[C@H](O)COc1ccccc1-c1ccc(C(=O)O)s1 [Example 449]

# Same assay, conditions: % intrinsic activity relative to isoproterenol maximal response; average of at least 3 runs; c-AMP in transfected CHO cells
row,SMILES,Emax (%) ± SEM
1,Cc1ccc(-c2ccccc2OC[C@@H](O)CNC(C)(C)Cc2ccc(Oc3ccc(C#N)cn3)cc2)s1.Cl [Example 405],64.4 ± 7.1%
2,CC(C)(Cc1ccc(Oc2ccc(C#N)cn2)cc1)NC[C@H](O)COc1ccccc1-c1ccco1.Cl [Example 408],74.0 ± 6.5%
3,Cc1ccc(-c2cccc(F)c2OC[C@@H](O)CNC(C)(C)Cc2ccc(Oc3ccc(C#N)cn3)cc2)s1.Cl [Example 427],72.4 ± 6.9%
4,CC(C)(Cc1ccc(Oc2ccc(C#N)cn2)cc1)NC[C@H](O)COc1c(F)cccc1-c1ccco1.Cl [Example 430],77.4 ± 9.0%

# Further lines, results first:
row,Emax (%) ± SEM,SMILES
1,79.3 ± 2.4%,Cc1ccc(-c2ccccc2OC[C@@H](O)CNC(C)(C)Cc2ccc(Oc3ncccc3C(N)=O)cc2)s1.Cl [Example 417]
2,53.4 ± 6.9%,CC(C)(Cc1ccc(Oc2cccnc2C#N)cc1)NC[C@H](O)COc1ccccc1-c1ccsc1.Cl [Example 421]
3,57.4 ± 4.1%,CC(C)(Cc1ccc(Oc2ncccc2C#N)cc1)NC[C@H](O)COc1ccccc1-c1ccsc1 [Example 380]
4,58.5 ± 6.9%,CC(C)(Cc1ccc(Oc2ncccc2C(N)=O)cc1)NC[C@H](O)COc1ccccc1-c1ccsc1.O=C(O)C(F)(F)F [Example 381]
5,76.0 ± 5.0%,CC(C)(Cc1ccc(Oc2ccc(C(N)=O)cn2)cc1)NC[C@H](O)COc1ccccc1-c1ccc(Cl)s1.Cl [Example 410]
6,17.6 ± 0.4%,CC(C)(Cc1ccc(Oc2ccc(S(C)(=O)=O)cc2)cc1)NC[C@H](O)COc1ccccc1-c1cccnc1.Cl.Cl [Example 392]

# Same assay, conditions: Emax ± SEM; average of at least 3 runs except as otherwise indicated; tested as the isolated form listed
row,Emax (%) ± SEM,SMILES
1,67.9 ± 6.1%,CC(C)(Cc1ccc(Oc2ncccc2C(N)=O)cc1)NC[C@H](O)COc1ccccc1-c1ccoc1.Cl [Example 303]
2,57.4 ± 6.5%,CC(C)(Cc1ccc(Oc2ccc(C#N)s2)cc1)NC[C@H](O)COc1ccccc1-c1nccs1.O=C(O)C(F)(F)F [Example 328]

# Same assay, conditions: Emax ± standard error of the mean; average of at least 3 runs except where n = 1; compound tested in the isolated form listed
row,SMILES,Emax (%) ± SEM
1,CC(C)(Cc1ccc(Oc2ccc(C(N)=O)cn2)cc1)NC[C@H](O)COc1ccccc1-c1nc2ccccc2o1 [Example 26],41.4 ± 6.6%
2,CC(C)(Cc1ccc(Oc2ncccn2)cc1)NC[C@H](O)COc1ccccc1-c1ccno1.O=C(O)C(F)(F)F [Example 152],45.3 ± 4.2%
3,CC(C)(Cc1ccc(Oc2cnccn2)cc1)NC[C@H](O)COc1ccccc1-c1nccs1.O=C(O)C(F)(F)F [Example 154],61.1 ± 7.7%
4,CC(C)(Cc1ccc(Oc2cccc(Cl)c2C#N)cc1)NC[C@H](O)COc1ccccc1-c1ccno1.O=C(O)C(F)(F)F [Example 217],76.2 ± 8.3%
5,CC(C)(Cc1ccc(Oc2ccc(C(N)=O)cc2)cc1)NC[C@H](O)COc1ccccc1-c1ccns1.O=C(O)C(F)(F)F [Example 126],62.2 ± 1.3%
6,CC(C)(Cc1ccc(Oc2ccc(C(N)=O)cc2Cl)cc1)NC[C@H](O)COc1ccccc1-c1cccs1.O=C(O)C(F)(F)F [Example 164],67.3 ± 3.5%
7,CC(C)(Cc1ccc(Oc2ccccc2C#N)cc1)NC[C@H](O)COc1ccccc1-c1ccno1.O=C(O)C(F)(F)F [Example 212],68.9 ± 3.1%
8,COC(=O)c1ccc(Oc2ccc(CC(C)(C)NC[C@H](O)COc3ccccc3-c3ccnn3C)cc2)c(Cl)c1 [Example 137],<10%
9,CC(C)(Cc1ccc(Oc2ncc(C(F)(F)F)cc2Cl)cc1)NC[C@H](O)COc1ccccc1-c1ccno1.O=C(O)C(F)(F)F [Example 160],56.3 ± 1.4%
10,CC(C)(Cc1ccc(Oc2ccccc2C#N)cc1)NC[C@H](O)COc1ccccc1-c1cccs1.O=C(O)C(F)(F)F [Example 286],72.1 ± 4.5%
11,CC(C)(Cc1ccc(Oc2ccc(S(N)(=O)=O)cc2F)cc1)NC[C@H](O)COc1ccccc1-c1nccs1.O=C(O)C(F)(F)F [Example 226],37.8 ± 9.2%
12,CC(C)(Cc1ccc(Oc2ccc(C(F)(F)F)cn2)cc1)NC[C@H](O)COc1ccccc1-c1ccno1.O=C(O)C(F)(F)F [Example 195],48.1 ± 3.8%
13,CC(C)(Cc1ccc(Oc2ccc(C#N)nc2)cc1)NC[C@H](O)COc1ccccc1-c1ccno1.O=C(O)C(F)(F)F [Example 221],40.8 ± 8.3%
14,CC(C)(Cc1ccc(Oc2ccccc2C#N)cc1)NC[C@H](O)COc1ccc(F)cc1-c1cccs1.O=C(O)C(F)(F)F [Example 214],42.4 ± 9.4%
15,CC(C)(Cc1ccc(Oc2ccc(C#N)cc2F)cc1)NC[C@H](O)COc1ccccc1-c1nccs1.O=C(O)C(F)(F)F [Example 188],38.3 ± 5.7%
16,CC(C)(Cc1ccc(Oc2ccc(C#N)cc2)cc1)NC[C@H](O)COc1ccccc1-c1cccs1.O=C(O)C(F)(F)F [Example 119],55.2 ± 3.6%
17,CC(C)(Cc1ccc(Oc2ccc(S(C)(=O)=O)cc2)cc1)NC[C@H](O)COc1ccccc1-c1ccno1 [Example 132],34.6 ± 7.8%
18,CC(C)(Cc1ccc(Oc2ccc(S(C)(=O)=O)cc2Cl)cc1)NC[C@H](O)COc1ccccc1-c1ccno1.O=C(O)C(F)(F)F [Example 183],53.7 ± 4.3%
19,CC(C)(Cc1ccc(Oc2ccc(C#N)s2)cc1)NC[C@H](O)COc1ccccc1-c1cscn1.Cl [Example 258],48.4 ± 5.6%
20,CC(C)(Cc1ccc(Oc2ccc(Cl)nn2)cc1)NC[C@H](O)COc1ccccc1-c1cccs1.O=C(O)C(F)(F)F [Example 208],92.4 ± 7.3%
21,CC(C)(Cc1ccc(Oc2ccc(C(N)=O)nc2)cc1)NC[C@H](O)COc1ccccc1-c1cccs1.O=C(O)C(F)(F)F [Example 205],70.3 ± 0.3%

# Other lines, results leading:
row,Emax (%) ± SEM,SMILES
1,<10%,CC(C)(Cc1ccc(Oc2ncccc2C(N)=O)cc1)NC[C@H](O)COc1cccc(C2=NCCN2)c1 [Example 88]
2,60.4 ± 5.1%,CC(C)(Cc1ccc(Oc2ncccc2C(N)=O)cc1)NC[C@H](O)COc1ccccc1-c1nc2ccccc2o1 [Example 81]
3,66.6 ± 5.7%,CC(C)(Cc1ccc(Oc2ccccc2C(N)=O)cc1)NC[C@H](O)COc1ccccc1-c1cscn1.Cl [Example 244]
4,48.8 ± 2.5%,CC(C)(Cc1ccc(Oc2ccc(C#N)cn2)cc1)NC[C@H](O)COc1ccccc1-c1ccno1 [Example 7]
5,74.5 ± 12.5%,CC(C)(Cc1ccc(Oc2ncccc2C#N)cc1)NC[C@H](O)COc1ccccc1-c1ccno1 [Example 53]
6,78.1 ± 6.6%,CC(C)(Cc1ccc(Oc2ncccc2C(N)=O)cc1)NC[C@H](O)COc1ccccc1-c1ccns1.O=C(O)C(=O)O [Example 96]
7,66.5 ± 3.9%,CC(C)(Cc1ccc(Oc2ccc(C(N)=O)cn2)cc1)NC[C@H](O)COc1ccccc1-c1ncco1 [Example 45]
8,37.5 n = 1%,CC(C)(Cc1ccc(Oc2ncccc2C#N)cc1)NC[C@H](O)COc1ccccc1-c1ccn[nH]1 [Example 55]
9,40.3 ± 3.7%,CC(C)(Cc1ccc(Oc2ccc(C(N)=O)cn2)cc1)NC[C@H](O)COc1ccccc1-c1ccncn1 [Example 75]
10,64.4 ± 5.2%,CC(C)(Cc1ccc(Oc2ncccc2Cl)cc1)NC[C@H](O)COc1ccccc1-c1cccs1.O=C(O)C(F)(F)F [Example 178]
11,51.3 ± 10.8%,CC(C)(Cc1ccc(Oc2ccccc2C(N)=O)cc1)NC[C@H](O)COc1ccc(F)cc1-c1cccs1.O=C(O)C(F)(F)F [Example 227]
12,31.3 n = 1%,CC(C)(Cc1ccc(Oc2ccc(C(N)=O)cn2)cc1)NC[C@H](O)COc1ccccc1-c1ccn[nH]1 [Example 19]
13,32.8 ± 4.3%,CC(C)(Cc1ccc(Oc2ncccc2C#N)cc1)NC[C@H](O)COc1ccccc1-c1ccnc(N)n1 [Example 61]
14,39.0 ± 0.6%,CC(C)(Cc1ccc(Oc2ncccc2C(N)=O)cc1)NC[C@H](O)COc1ccccc1-n1ccc(C#N)c1.Cl [Example 271]
15,83.4 ± 7.2%,CC1(C)COC(c2ccccc2OC[C@@H](O)CNC(C)(C)Cc2ccc(Oc3ccc(C(N)=O)cn3)cc2)=N1 [Example 28]
16,21.3 ± 3.3%,CC(C)(Cc1ccc(Oc2ncccc2C(N)=O)cc1)NC[C@H](O)COc1ccccc1N1CCCCC1.Cl.Cl [Example 79]
17,35.1 ± 0.9%,CC(C)(Cc1ccc(Oc2ccc(C#N)cn2)cc1)NC[C@H](O)COc1ccccc1-c1ccncn1 [Example 10]
18,67.6 ± 7.1%,CC(C)(Cc1ccc(Oc2ncccc2C(N)=O)cc1)NC[C@H](O)COc1ccccc1-c1ccno1 [Example 72]
19,<10%,CC(C)(Cc1ccc(Oc2ccc(C(N)=O)cn2)cc1)NC[C@H](O)COc1cccc(-c2cc[nH]n2)c1 [Example 34]
20,12.3 ± 0.2%,CC(C)(Cc1ccc(Oc2ncccc2C(N)=O)cc1)NC[C@H](O)COc1ccccc1N1CCNCC1.Cl.Cl.Cl [Example 80]
21,29.9 ± 3.2%,CC(C)(Cc1ccc(Oc2ccc(C(N)=O)cn2)cc1)NC[C@H](O)COc1ccccc1N1CCOCC1.Cl.Cl [Example 23]
22,38.8 ± 1.4%,CC(C)(Cc1ccc(Oc2ccc(C(N)=O)cn2)cc1)NC[C@H](O)COc1ccccc1-n1ccc(C=O)c1 [Example 274]
23,63.6 ± 4.3%,Cc1nc(-c2ccccc2OC[C@@H](O)CNC(C)(C)Cc2ccc(Oc3ncccc3C(N)=O)cc2)[nH]c1C.Cl.Cl [Example 262]
24,58.2 ± 7.2%,COC(=O)c1ccc(Oc2ccc(CC(C)(C)NC[C@H](O)COc3ccccc3-c3nccs3)cc2)nc1 [Example 116]
25,55.9 ± 5.8%,CC(C)(Cc1ccc(Oc2ncccc2C#N)cc1)NC[C@H](O)COc1ccccc1-c1cnco1.Cl [Example 65]
